One test concerns the target T1, HIV protease (Human immunodeficiency virus type 1 group M subtype B, UniProt P04585).
T1 construct: HIV protease was expressed in E. coli; made in house; host or cells: E. coli (plasmid pBRT1 prt+)
In words: Recombinant HIV Protease HPLC Assay. The class given is biochemical. The settings on record: 37°, 30 min, pH 5.5. The source says:
The procedure is based on the capacity of the test compound to inhibit enzymatic cleavage by HIV protease of a decapeptide (the substrate) having an amino acid sequence which includes a known HIV protease cleavage site of a HIV polyprotein; see H. G. Krausslich et al., Proc. Natl. Acad. Sci. USA, 86, 807 (1989). Details of this assay together with the results obtained for exemplified compounds of formula 1 are described in the examples hereinafter.
Recombinant HIV Protease HPLC Assay:
Enzyme: HIV protease was expressed in E. coli {construct pBRT1 prt^+, see W. G. Farmerie et al., Science, 236, 305 (1987)}, according to the following protocol:
E. coli cells containing the pBRT1 prt^+ plasmid were used to inoculate a seed culture media composed of Luria-Bertani Broth containing 100 μg/mL of ampicillin. Flasks were incubated at 37° under agitation for 17 h. Production flasks containing sterile M9 broth, supplemented with 100 μg/mL of ampicillin, were inoculated at a level of 1% (v/v) using the seed culture described above. Total volume in each production flask was 500 mL in a 2 L Erlenmeyer flask. Flasks were incubated at 37° under agitation until a cell concentration corresponding to an optical density ([…]) of 0.6 was reached (no dilution). This time span was routinely 3-4 h. Flasks were then supplemented with 5 mM isopropylthiogalactoside (IPTG, Research Organics, Cleveland, Ohio, USA) and incubation was continued until the cell concentration reached an optical density of 0.2 at 16-fold dilution. Flasks were then supplemented with 1 mM phenylmethylsulfonyl fluoride (PMSF) and rapidly chilled to 4°. The bacterial cells were recovered by centrifugation at 4°. The wet pellet was stored at -70°.
All steps below were performed at 4° unless otherwise indicated. Thawed cells were mixed with buffer A {50 mM tris(hydroxymethyl)[…] HCl (Tris-HCl, pH 7.4); 0.6 mM ethylenediaminetetraacetic acid (EDTA); 0.375M NaCl, 0.2% Nonidet P-40® (BDH Chemicals Ltd., Poole, UK); 1 mM PMSF}, at a ratio of one part cells to nine parts buffer A. Diatomaceous earth (Celite 545®, John Manville, Lompoc, Calif. USA) was added at a ratio of two parts to one part of wet cell weight. The resulting slurry was homogenized at high speed (ca. 20,000 rpm) on a Waring® industrial blender for 8×15 sec. pulses. Cell debris/Celite® was collected by centrifugation and the resulting pellet was extracted with 4.5 parts of buffer A to one part wet solids using the homogenization procedure described above. Supernatants from both homogenization steps were combined and soluble protein was precipitated by the addition of solid (NH4)2 SO4 to yield a final concentration of 75% saturation. This mixture was agitated for 60 min and the precipitate was recovered by centrifugation. The resulting pellet was suspended in buffer B {50 mM Tris-HCl, pH 8; 30 mM NaCl; 1 mM DL-dithiothreitol (DTT); 1 mM EDTA; 1 mM PMSF; 10% glycerol}, and dialyzed for 18 h against the same buffer.
An aliquot of the dialyzed extract containing 150 mg of the protein was loaded onto a Sephadex A25® anion exchange column (Pharmacia, Uppsala, Sweden) with bed dimensions of 70 cm length and 2.5 cm diameter. The sample was eluted isocratically with buffer B at a linear flow rate of 10 cm/h. Fractions containing HIV protease activity (see below for assay description) were combined, and soluble protein was precipitated by the addition of saturated aqueous (NH4)2 SO4 to yield a total (NH4)2 SO4 concentration of 85% saturation. Precipitated protein was removed by centrifugation and the resulting pellet was dissolved in buffer C {50 mM 2-(4-morpholino)ethanesulfonic acid (MES), pH 5.5; 150 mM NaCl; 1 mM DTT; 1 mM EDTA; 10% glycerol}. This preparation was dialyzed for 18 h against buffer C, and then frozen at -70°. All crude extracts were purified by chromatography in aliquots containing 150 mg of protein in the same manner as described above. […]

In test [1] the test system is HIV (H9/HTLV-IIIB) in C8166 cells. As to the kind of experiment: plaque assay: inhibition of syncytia formation in HIV-infected C8166 cells. It is filed as cell-based. The settings on record: Human immunodeficiency virus 1, IIIB, Table IV, 72 h, 50% inhibition of syncytia formation. The source says:
Typical of such procedures are those described by S. Harada and N. Yamamoto, Jpn. J. Cancer Res. (Gann), 76, 432 (1985), and S. Harada et al., Science, 229, 563 (1985). An assay based on the latter procedures is described in the examples hereinafter.
The following protocol, used for screening antiviral effects of the compounds of formula 1, is adapted from a plaque assay utilizing HTLV-I transformed cells, previously reported by Harada et al., supra. HTLV-I transformed cells are used because of the rapidity with which HIV will replicate in the cells.
1. The test compound is dissolved in dimethylsulfoxide to a concentration of 5 mg/mL. The resultant solution can be stored at 4° until use.
2. The resultant solution is diluted in RPMI 1640 (Gibco Laboratories, St. Lawrence, Mass., USA) to four times (4×) the final concentration which is to be tested. Once diluted in RPMI 1640, the solution is used in the cell culture assay within 4 h.
3. The 4× solution (50 μL) is added to triplicate wells of a 96 well flat bottomed microtiter plate. RPMI (50 μL) also is added to control wells.
4. C8166 cells (5×10^4) in 50 μL of HEPES-buffered RPMI 1640 (pH=7.2), 10% heat inactivated fetal calf serum (FCS), […] gentamicin (complete media) are added to all wells.
5. Fifty times TCID50 of H9/HTLV-IIIB stock (stored in liquid nitrogen as cell culture supernatant in 50% FCS) in 100 μL of complete media is added to all wells. Infectious titer of virus stocks are as previously determined by end point dilution on C8166 cells. Titer of stocks are stable for 6-12 months when stored at -193°.
6. Microtiter plates are then placed on level shelves of a 37°, 5% CO2 humidified incubator for 72 h.
7. Plates are then removed and centers of syncytia are counted in each well by low power phase contrast light microscopy. […] Control wells should have between 25 and 75 centers of syncytia per well.
8. Percent inhibition of syncytia formation is calculated by the formula: [formula]
The concentration of the test compound which causes a 50% inhibition of syncytia formation, i.e. the EC50, is determined by using the technique of serial dilution of the working solution at step 3 and by using non-linear regression analysis (SAS® program) to graphically plot the observed percent inhibition of syncytia formation against the various concentrations of the test compound.

As for `CC(C)(C)NC(=O)[C@@H]1C[C@H](Sc2ccccc2)CCN1C[C@@H](O)[C@H](Cc1ccc(F)cc1)NC(=O)OCc1ccccc1` [Table IV, entry 1, N-tert-butyl-1-{3(S)-(benzyloxycarbonylamino)-2(R)-hydroxy-4-(4-fluorophenyl)butyl}-4(R)-(phenylthio)piperidine-2(S)-carboxamide], at HIV protease (Table IV), the IC50 was found to be 0.0095 µM.

On to `CC(C)(C)NC(=O)[C@@H]1C[C@H](c2ccccc2)CCN1C[C@@H](O)[C@H](Cc1ccccc1)NC(=O)OCc1ccccc1` [Table IV, entry 2, N-tert-butyl-1-{3(S)-(benzyloxycarbonylamino)-2(R)-hydroxy-4-phenylbutyl}-4(R)-phenylpiperidine-2(S)-carboxamide], for which, on HIV protease (Table IV), the IC50 was determined as 0.4 µM.

With `CC(C)(C)NC(=O)[C@@H]1C[C@H](Cc2ccccc2)CCN1C[C@@H](O)[C@H](Cc1ccccc1)NC(=O)OCc1ccccc1` [Table IV, entry 3, N-tert-butyl-1-{3(S)-(benzyloxycarbonylamino)-2(R)-hydroxy-4-phenylbutyl}-4(R)-benzylpiperidine-2(S)-carboxamide], the 50% inhibitory concentration (IC50) at HIV protease (Table IV) was determined as 0.46 µM.

As for `CC(C)(C)NC(=O)[C@@H]1C[C@H](S(=O)(=O)c2ccccc2)CCN1C[C@@H](O)[C@H](Cc1ccccc1)NC(=O)OCc1ccccc1` [Table IV, entry 4, N-tert-butyl-1-{3(S)-(benzyloxycarbonylamino)-2(R)-hydroxy-4-phenylbutyl}-4(R)-(phenylsulfonyl)piperidine-2(S)-carboxamide], on HIV protease (Table IV), the IC50 was determined as 0.03 µM. In test [1], this compound showed an EC50 of 1.4 µM.

Turning to `CC(C)(C)NC(=O)[C@@H]1C[C@H](Sc2ccccc2)CCN1C[C@@H](O)[C@H](Cc1ccccc1)NC(=O)OCc1ccccc1` [Table IV, entry 5, N-tert-butyl-1-{3(S)-(benzyloxycarbonylamino)-2(R)-hydroxy-4-phenylbutyl}-4(R)-(phenylthio)piperidine-2(S)-carboxamide], the midpoint of the response in test [1], the EC50, lay at 0.8 µM.

Turning to `CC(C)(C)NC(=O)[C@@H]1C[C@H](Oc2ccccc2)CCN1C[C@@H](O)[C@H](Cc1ccccc1)NC(=O)OCc1ccccc1` [Table IV, entry 6, N-tert-butyl-1-{3(S)-(benzyloxycarbonylamino)-2(R)-hydroxy-4-phenylbutyl}-4(R)-phenoxypiperidine-2(S)-carboxamide], at HIV protease (Table IV), the 50% inhibitory concentration (IC50) is 0.053 µM.

On to `CC(C)(C)NC(=O)[C@@H]1C[C@H](C2CCCCC2)CCN1C[C@@H](O)[C@H](Cc1ccccc1)NC(=O)OCc1ccccc1` [Table IV, entry 7, N-tert-butyl-1-{3(S)-(benzyloxycarbonylamino)-2(R)-hydroxy-4-phenylbutyl}-4(R)-cylohexylpiperidine-2(S)-carboxamide], for which the half-inhibitory concentration (IC50) on HIV protease (Table IV) came to 2.1 µM.

Turning to `CC(C)[C@H](NC(=O)OCc1ccccc1)C(=O)N[C@@H](Cc1ccccc1)[C@H](O)CN1CC[C@@H](Sc2ccccc2)C[C@H]1C(=O)NC(C)(C)C` [Table IV, entry 8], the IC50 at HIV protease (Table IV) turned out to be 0.0039 µM. In addition, in test [1], the EC50 was found to be 0.013 µM.

Regarding `CC(C)(C)NC(=O)[C@@H]1C[C@H](Sc2ccccc2)CCN1C[C@@H](O)[C@H](Cc1ccccc1)NC(=O)[C@H](CC(N)=O)NC(=O)OCc1ccccc1` [Table IV, entry 9, N-tert-butyl-1-{3(S)-{{N-(benzyloxycarbonyl)asparaginyl}amino}-2(R)-hydroxy-4-phenylbutyl}-4(R)-(phenylthio)piperidine-2(S)-carboxamide], the concentration for half-maximal inhibition (IC50) on HIV protease (Table IV) turned out to be 0.004 µM. This compound displayed an EC50 in test [1] of 0.043 µM.

`CC(C)[C@H](NC(=O)OCc1ccccc1)C(=O)N[C@@H](Cc1ccccc1)[C@H](O)CN1CC[C@@H](c2ccccc2)C[C@H]1C(=O)NC(C)(C)C` [Table IV, entry 10, N-tert-butyl-1-{3(S)-{{N-(benzyloxycarbonyl)valyl}amino}-2(R)-hydroxy-4-phenylbutyl}-4(R)-phenylpiperidine-2(S)-carboxamide]: on HIV protease (Table IV), the IC50 was 0.0031 µM. The compound also came in with an EC50 in test [1] of 0.09 µM.

Take `CC(C)[C@H](NC(=O)OCc1ccccc1)C(=O)N[C@@H](Cc1ccccc1)[C@H](O)CN1CC[C@@H](Sc2ccccn2)C[C@H]1C(=O)NC(C)(C)C` [Table IV, entry 33, N-tert-butyl-1-{3(S)-{{N-(benzyloxycarbonyl)valyl}amino}-2(R)-hydroxy-4-phenylbutyl}-4(R)-(2-pyridinylthio)piperidine-2(S)-carboxamide]: the IC50 at HIV protease (Table IV) is 0.0032 µM.

With `CC(C)[C@H](NC(=O)OCc1ccccc1)C(=O)N[C@@H](Cc1ccccc1)[C@H](O)CN1CC[C@@H](Sc2ccncc2)C[C@H]1C(=O)NC(C)(C)C` [Table IV, entry 34, N-tert-butyl-1-{3(S)-{{N-(benzyloxycarbonyl)valyl}amino}-2(R)-hydroxy-4-phenylbutyl}-4(R)-(4-pyridinylthio)piperidine-2(S)-carboxamide], at HIV protease (Table IV), the 50% inhibitory concentration (IC50) was found to be 0.0025 µM.

Take `CC(C)(C)NC(=O)[C@@H]1C[C@H](Sc2ccncc2)CCN1C[C@@H](O)[C@H](Cc1ccccc1)NC(=O)COc1ccccc1` [Table VII, entry 3, N-tert-butyl-1-{3(S)-{{phenoxyacetyl}amino}-2(R)-hydroxy-4-phenylbutyl}-4(R)-(4-pyridinylthio)piperidine-2(S)-carboxamide]: the concentration for half-maximal inhibition (IC50) at HIV protease (Table VII) turned out to be 0.034 µM.

Consider `Cc1ccc(F)cc1C(=O)N[C@@H](Cc1ccccc1)[C@H](O)CN1CC[C@@H](Sc2ccncc2)C[C@H]1C(=O)NC(C)(C)C` [Table VII, entry 9, N-tert-butyl-1-{3(S)-{{(5-fluoro-2-methylphenyl)carbonyl}amino}-2(R)-hydroxy-4-phenylbutyl}-4(R)-(4-pyridinylthio)piperidine-2(S)-carboxamide], for which the concentration for half-maximal inhibition (IC50) on HIV protease (Table VII) was determined as 0.0068 µM.

The values are drawn from patent US5614533A, “Substituted pipecolinic acid derivatives as HIV protease inhibitors” (Bio-Mega/Boehringer Ingelheim Research, Inc., priority 1994, dated 1997).
